Values joined by “and” are separate entries in the source; they are usually repeats but may differ in a detail not shown here. Identical values can stand only once. Like-named read-outs stand apart in the source and are kept apart here. Ends that are not written are not given here. Peptide text beside a SMILES is read from it. * marks the point of attachment. Biotin = O=C1N[C@H]2[C@H](CS[C@H]2CCCCC(=O)*)N1
What was measured:
[1] = target: T1, PDZ protein (GST-PDZ fusion) (Homo sapiens, UniProt O15021); assay: G' assay (10 uM PL peptide), results of TABLE 7 and TABLE 12; type: binding; details: PDZ KIAA0303, PDZ Domain 1
T1 construct: made in house; host or cells: E. coli (DH5alpha, BL21 or JM109)
Procedure, shortened: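 Same steps as the G-zero format, apart from a peptide concentration of 10 uM in place of 20 uM in step 2. Amino-terminally biotinylated PL peptides bind GST-PDZ fusions, and retained peptide is quantified by 450 nm absorbance.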

[2] = target: T2, TIP-1 (GST-TIP-1 fusion) (Homo sapiens, UniProt O14907, I73S); assay: G assay peptide titration, dissociation constants (Example 3, TABLE 4); type: binding; details: for Kd / OD (maximum absorbance): biotinylated C-terminal 20-mer, 450 nm, 30 min
T2 construct: made in house; host or cells: E. coli DH5alpha
T2 sequence (O14907 3-123 I73S): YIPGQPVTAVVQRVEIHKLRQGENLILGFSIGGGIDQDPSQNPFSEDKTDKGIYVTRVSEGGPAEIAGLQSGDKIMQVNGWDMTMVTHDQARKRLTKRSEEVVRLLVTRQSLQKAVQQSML
Experimental: Binding between these molecules was assessed using a modified ELISA. Briefly, a GST-TIP-1 fusion was produced that contained the entire PDZ domain of human TIP-1 (Insert as in EXAMPLE 2). In addition, biotinylated peptides corresponding to the C-terminal 20 amino acids of Tax and CD95 were synthesized and purified by HPLC. Binding between these entities was detected through a colorimetric assay using avidin-HRP to bind the biotin and a peroxidase substrate (G-assay, as described supra). By titrating the amount of peptide and protein added to these reactions, dissociation constants (Kd) were determined as an indication of relative affinity of the peptide and fusion protein association.
(at last wash leave PBS in wells until immediately adding next step) • 6) Add proteins at 50 ul per well on ice (1 to 2 hrs at 4° C.) • 7) Prepare Peptides in 2% BSA (2 ml/row or /columns) • 8) 3× wash with cold PBS • 9) Add peptides at 50 ul per well on ice (time on/time off)
Using the protocol for the ‘G’ assay described above, dissociation constants were determined by titrating the amount of peptide against a set concentration of PDZ-containing protein. Kd values were determined by identifying the peptide concentration that gave half-maximal binding to the PDZ protein. Different concentrations of PDZ-containing protein were plated in order to achieve maximal peptide binding values that were less than the absorbance maximum of the ELISA plate reader.
Proteins on the left are GST fusions to the PDZ domain(s) of protein indicated. Numbers in parenthesis indicate the number of PDZ domains present in the fusion construct, from the amino-terminus of the first number listed to the carboxyl terminus of the second. PDZ Ligands are listed across the top of the table, representing biotinylated peptides corresponding to the carboxy-terminal 20 amino acids of each protein. The first three columns following the PDZ indicate the concentration of fusion protein plated for the G assay, followed by the wavelength and time of reading from addition of TMB substrate. 450 nm indicates a reaction halted by addition of sulfuric acid and absorbance read at 450 nm. Values beneath each ligand indicate first the maximum absorbance followed by the observed Kd in uM. Numbers in the squares are the average of duplicate or quadruplicate reactions. Blank squares indicate that the Kd for the interaction was not tested under those conditions on the same sample plate. No binding to GST alone is observed.

T1 sequence (O15021 whole entry, the tested form may be a part): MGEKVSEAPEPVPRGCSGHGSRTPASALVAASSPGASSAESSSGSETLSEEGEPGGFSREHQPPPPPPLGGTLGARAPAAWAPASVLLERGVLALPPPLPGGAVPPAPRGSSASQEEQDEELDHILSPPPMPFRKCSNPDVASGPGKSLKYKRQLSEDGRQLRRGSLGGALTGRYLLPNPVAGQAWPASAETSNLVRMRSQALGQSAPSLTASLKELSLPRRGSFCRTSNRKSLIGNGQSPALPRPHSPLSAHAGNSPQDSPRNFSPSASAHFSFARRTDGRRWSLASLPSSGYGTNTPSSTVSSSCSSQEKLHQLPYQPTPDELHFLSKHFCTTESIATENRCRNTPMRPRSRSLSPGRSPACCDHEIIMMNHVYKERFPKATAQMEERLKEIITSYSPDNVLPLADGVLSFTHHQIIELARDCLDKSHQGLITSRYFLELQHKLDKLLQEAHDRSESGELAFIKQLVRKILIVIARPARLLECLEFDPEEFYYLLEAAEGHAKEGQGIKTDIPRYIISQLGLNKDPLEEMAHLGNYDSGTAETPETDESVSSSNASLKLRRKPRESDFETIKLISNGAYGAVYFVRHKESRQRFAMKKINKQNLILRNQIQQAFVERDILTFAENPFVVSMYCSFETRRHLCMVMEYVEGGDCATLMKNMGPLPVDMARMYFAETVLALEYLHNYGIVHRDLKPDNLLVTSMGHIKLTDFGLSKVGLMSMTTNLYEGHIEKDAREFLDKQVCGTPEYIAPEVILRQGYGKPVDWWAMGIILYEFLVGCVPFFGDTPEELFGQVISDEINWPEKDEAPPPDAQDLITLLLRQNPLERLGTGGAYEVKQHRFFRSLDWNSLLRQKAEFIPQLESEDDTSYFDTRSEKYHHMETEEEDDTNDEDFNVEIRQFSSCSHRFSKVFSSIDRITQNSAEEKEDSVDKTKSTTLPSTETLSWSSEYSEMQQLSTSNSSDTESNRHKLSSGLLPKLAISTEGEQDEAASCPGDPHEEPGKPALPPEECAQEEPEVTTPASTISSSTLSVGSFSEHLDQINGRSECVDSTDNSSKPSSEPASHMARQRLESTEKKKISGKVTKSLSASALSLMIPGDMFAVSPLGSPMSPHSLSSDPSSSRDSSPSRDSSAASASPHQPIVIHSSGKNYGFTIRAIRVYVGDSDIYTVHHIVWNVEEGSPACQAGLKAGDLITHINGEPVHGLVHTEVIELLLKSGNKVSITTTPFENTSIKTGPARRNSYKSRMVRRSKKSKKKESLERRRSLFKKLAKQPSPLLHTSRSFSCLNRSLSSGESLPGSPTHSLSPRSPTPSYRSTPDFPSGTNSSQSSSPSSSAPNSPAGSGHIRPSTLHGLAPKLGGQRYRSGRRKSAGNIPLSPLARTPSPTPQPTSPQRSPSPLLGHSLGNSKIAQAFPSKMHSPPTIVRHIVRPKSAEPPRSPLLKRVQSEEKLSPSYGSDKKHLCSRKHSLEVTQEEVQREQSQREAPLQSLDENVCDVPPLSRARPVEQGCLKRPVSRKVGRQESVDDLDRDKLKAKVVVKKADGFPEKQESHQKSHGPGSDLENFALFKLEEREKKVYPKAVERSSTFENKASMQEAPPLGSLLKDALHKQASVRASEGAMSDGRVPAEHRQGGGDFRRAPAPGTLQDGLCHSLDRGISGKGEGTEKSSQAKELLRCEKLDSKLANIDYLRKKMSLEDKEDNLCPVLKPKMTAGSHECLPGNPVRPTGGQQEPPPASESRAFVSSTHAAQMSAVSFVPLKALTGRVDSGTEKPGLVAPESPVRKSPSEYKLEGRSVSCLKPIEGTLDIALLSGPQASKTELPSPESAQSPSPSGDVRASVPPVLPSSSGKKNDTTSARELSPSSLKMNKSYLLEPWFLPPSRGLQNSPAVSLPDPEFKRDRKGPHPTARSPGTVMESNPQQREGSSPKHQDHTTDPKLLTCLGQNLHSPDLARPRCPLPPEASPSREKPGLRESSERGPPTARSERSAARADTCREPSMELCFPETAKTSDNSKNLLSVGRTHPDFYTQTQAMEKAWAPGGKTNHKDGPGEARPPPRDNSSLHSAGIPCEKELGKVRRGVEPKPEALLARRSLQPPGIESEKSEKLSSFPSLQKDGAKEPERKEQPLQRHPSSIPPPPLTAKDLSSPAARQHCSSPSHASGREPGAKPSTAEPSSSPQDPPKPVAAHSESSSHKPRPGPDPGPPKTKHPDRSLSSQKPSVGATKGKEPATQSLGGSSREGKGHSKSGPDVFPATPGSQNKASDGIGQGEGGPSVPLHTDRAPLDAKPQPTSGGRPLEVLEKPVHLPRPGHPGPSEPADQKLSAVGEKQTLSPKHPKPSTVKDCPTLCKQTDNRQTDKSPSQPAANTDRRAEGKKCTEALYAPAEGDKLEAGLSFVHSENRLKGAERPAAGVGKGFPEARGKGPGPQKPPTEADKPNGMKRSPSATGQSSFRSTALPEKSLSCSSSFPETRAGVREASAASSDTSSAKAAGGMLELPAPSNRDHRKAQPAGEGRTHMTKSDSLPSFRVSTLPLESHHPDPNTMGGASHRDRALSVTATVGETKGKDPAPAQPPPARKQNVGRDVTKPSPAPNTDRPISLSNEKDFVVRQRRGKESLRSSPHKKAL

Compound: ELLQFCRTPNPALKNGQYWV (Biotin-ELLQFCRTPNPALKNGQYWV)
- Classification [1]: 1 (A450 nm 0-1)

Compound: CC[C@H](C)[C@H](NC(=O)[C@H](CO)NC(=O)[C@@H](NC(=O)[C@H](Cc1ccccc1)NC(=O)[C@H](CO)NC(=O)CCCC[C@@H]1SC[C@@H]2NC(=O)N[C@@H]21)[C@@H](C)O)C(=O)N[C@@H](CC(C)C)C(=O)N[C@H](C(=O)N[C@@H](CS)C(=O)N[C@@H](Cc1c[nH]cn1)C(=O)N[C@@H](CCC(N)=O)C(=O)N[C@@H](CCCNC(=N)N)C(=O)N[C@@H](CCCNC(=N)N)C(=O)N[C@H](C(=O)N[C@@H](CCC(N)=O)C(=O)N[C@@H](CCCNC(=N)N)C(=O)N[C@@H](CCCCN)C(=O)N[C@@H](CCC(=O)O)C(=O)N[C@H](C(=O)N[C@H](C(=O)N[C@@H](C)C(=O)O)C(C)C)[C@@H](C)O)[C@@H](C)O)[C@@H](C)O [GluR5-2 (rat)]
- Classification [1]: 1 (A450 nm 0-1)

Compound: CC[C@H](C)[C@H](NC(=O)[C@H](CCC(N)=O)NC(=O)CCCC[C@@H]1SC[C@@H]2NC(=O)N[C@@H]21)C(=O)N[C@@H](CO)C(=O)N1CCC[C@H]1C(=O)NCC(=O)NCC(=O)N[C@@H](CC(C)C)C(=O)N[C@@H](CCC(=O)O)C(=O)N1CCC[C@H]1C(=O)N1CCC[C@H]1C(=O)N[C@@H](CO)C(=O)N[C@@H](CCC(=O)O)C(=O)N[C@@H](CCCCN)C(=O)N[C@@H](Cc1c[nH]cn1)C(=O)N[C@@H](Cc1ccccc1)C(=O)N[C@@H](CCCNC(=N)N)C(=O)N[C@@H](CCC(=O)O)C(=O)N[C@H](C(=O)N[C@@H](CCC(=O)O)C(=O)N[C@H](C(=O)O)C(C)C)[C@@H](C)O [Tax]
- Kd ([2]; Kd, TIP-1 plated at 0.1 ug/ml): 0.005 µM
- binding to TIP-1 relative to CD95 (comparison of dissociation constants) ([2]; Tax:TIP-1 versus CD95:TIP-1): > 3000 fold
- OD (maximum absorbance) ([2]; TIP-1 plated at 0.1 ug/ml): 3.3 and 2.1
- affinity for GST-TIP-1 relative to CD95 (FIG. 2A) ([2]; equivalent peptide concentrations, equivalent amount of GST-TIP-1): much higher affinity than does CD95

Compound: CC[C@H](C)[C@H](NC(=O)[C@H](CCC(=O)O)NC(=O)[C@H](CC(N)=O)NC(=O)[C@H](CCCNC(=N)N)NC(=O)[C@H](Cc1ccccc1)NC(=O)[C@H](CC(N)=O)NC(=O)[C@H](CO)NC(=O)[C@H](CC(N)=O)NC(=O)[C@H](CCC(=O)O)NC(=O)[C@H](CO)NC(=O)[C@H](CC(=O)O)NC(=O)[C@H](CO)NC(=O)[C@@H](NC(=O)[C@@H](NC(=O)[C@H](CC(=O)O)NC(=O)[C@H](CCCCN)NC(=O)CCCC[C@@H]1SC[C@@H]2NC(=O)N[C@@H]21)[C@@H](C)CC)[C@@H](C)O)C(=O)N[C@@H](CCC(N)=O)C(=O)N[C@@H](CO)C(=O)N[C@@H](CC(C)C)C(=O)N[C@H](C(=O)O)C(C)C [CD95] (Biotin-KDITSDSENSNFRNEIQSLV-OH; C-terminus assumed)
- OD (maximum absorbance) ([2]; TIP-1 plated at 0.3 ug/ml): 2.6 and 3.5
- Kd ([2]; TIP-1 plated at 0.3 ug/ml, read-out: Kd): 20 µM and 25 µM
